Data reported in publication PMC8270270, “Rosin Derivatives as a Platform for the Antiviral Drug Design” (Molecules, 2021).

Assays:
Candida tropicalis = experiment: Disco-diffuse method, fungicidal activity; format: cell-based; conditions: for The Zone of Growth Inhibition: 48 h at 32 °C
Procedure: (§1) The determination of compounds (I, IV, VI–XI) effect concerning microorganisms was carried out using test strains of Escherichia coli, Bacillus subtilis, and Candida tropicalis. They are not only natural inhabitants of natural biocenoses but also a part of human microbiocenosis. Used microorganisms of bacteria were selected as representatives of the Gram-positive and Gram-negative human microbiota. The antibacterial activity of compounds (I, IV, VI–XI) was studied by the disco-diffuse method. The strain culture was transferred sterile from the mown agar into test tubes with 5 mL of nutrient medium to obtain a “night culture” 12–15 h before the experiment. Beef-extract agar (BEA) was used as a nutrient medium for the development of bacterial cells, and Sabouraud’s medium was used for yeast. Bacterial cultures were incubated in a thermostat at 37 °C, and yeast cultures at 32 °C. The melted BEA was poured sterile into Petri dishes (diameter 90 mm) and evenly distributed over the bottom of the dish, covered with a lid, and left on the table until it solidified completely. Next, the dishes with BEA were inoculated with a “lawn” by introducing a strain culture (suspension titer −1–2 × 10^8 CFU/mL) in an amount of 500 µL and evenly distributing it with a sterile spatula. The dishes were left for 60–90 min to dry the culture. Compounds (I, IV, VI–XI) were previously dissolved, and the sequential dilutions were applied to disks. Dimethyl sulfoxide (DMSO) was used as a solvent for the DAA. Water was used as a solvent for their potassium salts. […] This disk was impregnated with a solution of the test compound amounting to 100 μL and incubated in the dark for 24 h at 37 °C (Escherichia coli and Bacillus subtilis) and 48 h at 32 °C (Candida tropicalis). The solution diffuses, forming a concentration gradient of the test compound around the disc. After the incubation period, the inhibition zone or stimulation of microbial growth around the disk was measured in the experimental and control samples. A conclusion was made about the degree (bactericidal) toxicity of compounds. Solvent-treated disks (DMSO) were used as controls. The experiments were performed three times.

[1] = tested on: A/California/07/09 ((A)H1N1pdm09) viral strain; format: cell-based, influenza virus
Bacillus subtilis = experiment: Disco-diffuse method, antibacterial activity; format: cell-based; conditions: for The Zone of Growth Inhibition: 24 h at 37 °C
Procedure: as §1

Escherichia coli = experiment: Disco-diffuse method, antibacterial activity; format: cell-based; conditions: for The Zone of Growth Inhibition: 24 h at 37 °C
Procedure: as §1

A549 cell culture = experiment: Cytotoxicity, colorimetric MTT assay; format: cell-based, human
Procedure: The cytotoxicity of compounds (I–V) was assessed on A549 cell culture using a colorimetric MTT assay. A549 cells were incubated for 24 h at 37 °C, 5% CO2 with solutions of the studied compounds at various concentrations. Next, the cell monolayer was washed, and MTT solution was added in a volume of 0.1 mL at a concentration of […]. After 1 h of MTT contact with the cells, the wells were washed, and the formed formazan crystals were dissolved in 0.1 mL of DMSO. The results were recorded at 560 nm on a CLARIOstar Plus plate photometer (BMG LABTECH, Ortenberg, Germany). The IC50 was calculated using GraphPad Prism 6.0.

[2] = tested on: herpes simplex virus type 1 (HSV-1); design: method as in PMID 19892441; conditions: endpoint titration (EPTT); cited from earlier work
[3] = compound concentration 10 mg/mL
[4] = compound concentration 25 mg/mL
[5] = compound concentration 50 mg/mL

For `CC(C)c1cc2c(cc1S(=O)(=O)[O-])C1(C)CCCC(C)(C(=O)[O-])C1CC2.[K+].[K+]` (stereo not shown) [IV, Potassium 12-sulfodehydroabietate], the “Fungicidal activity (in words)” value (Candida tropicalis; 1-50 mg/mL) was “did not show either antibacterial activity or fungicidal activity”, the “The Zone of Growth Inhibition” value (Candida tropicalis; compound concentration 1 mg/mL) was 0 mm and the “The Zone of Growth Inhibition” value (Candida tropicalis; compound concentration 5 mg/mL) was 0 mm. For the same compound, the “The Zone of Growth Inhibition” value (Candida tropicalis; [3]) was 0 mm, the “The Zone of Growth Inhibition” value (Candida tropicalis; [4]) was 0 mm and the “The Zone of Growth Inhibition” value (Candida tropicalis; [5]) was 0 mm. The Dose-dependent antiviral effect [1] was “did not significantly reduce the viral load”, the “Antiviral activity (in words)” value ([1]; A549, in vitro, working concentration) was “did not show antiviral activity” and the “Antibacterial activity (in words)” value (Bacillus subtilis; 1-50 mg/mL) was “did not show either antibacterial activity or fungicidal activity”. For the same compound, the “The Zone of Growth Inhibition” value (Bacillus subtilis; compound concentration 1 mg/mL) was 0 mm, the “The Zone of Growth Inhibition” value (Bacillus subtilis; compound concentration 5 mg/mL) was 0 mm and the “The Zone of Growth Inhibition” value (Bacillus subtilis; [3]) was 0 mm. For the same compound, the “The Zone of Growth Inhibition” value (Bacillus subtilis; [4]) was 0 mm, the “The Zone of Growth Inhibition” value (Bacillus subtilis; [5]) was 0 mm and the “Antibacterial activity (in words)” value (Escherichia coli; 1-50 mg/mL) was “did not show either antibacterial activity or fungicidal activity”. The “The Zone of Growth Inhibition” value (Escherichia coli; compound concentration 1 mg/mL) was 0 mm, the “The Zone of Growth Inhibition” value (Escherichia coli; compound concentration 5 mg/mL) was 0 mm and the “The Zone of Growth Inhibition” value (Escherichia coli; [3]) was 0 mm. The “The Zone of Growth Inhibition” value (Escherichia coli; [4]) was 0 mm, the “The Zone of Growth Inhibition” value (Escherichia coli; [5]) was 0 mm and the “Cytotoxicity (in words)” value (A549 cell culture; A549, MTT assay) was “weak toxicity”. The IC50 (A549 cell culture; Homo sapiens, A549, 24 h, read-out: Determined IC50) was over 431 µg/mL and the “Cell viability (in words)” value (A549 cell culture; at the working concentrations used to assess antiviral activity) was “did not cause a significant decrease in cell viability”.

For `CC(=O)OC[C@]1(C)CCC[C@]2(C)c3ccc(C(C)C)cc3CC[C@@H]12` [dehydroabietinol acetate], the “Concentration at which HSV-1 replication was reduced” value [2] is listed as “below 100 mg/mL”.

In the case of `CC(C)c1ccc2c(c1)CC[C@H]1[C@](C)(COC(=O)c3ccccc3)CCC[C@]21C` [dehydroabietinol benzoate], the “Concentration at which HSV-1 replication was reduced” value [2] is listed as “below 100 mg/mL”.
